# Data published in the supplement of paper PMC12613149.
# Counter-ions that a name gives are not always drawn.
# Tests used:
# [1] = reversed-phase LC retention time (C18, 15 min MeOH gradient); higher = more hydrophobic / later elution
# [2] = collision cross section (TIMS, N2 drift gas) of the primary ion; higher = larger gas-phase ion size
# [3] = ionization mode: ESI+, ion species: [M+H]+
# [4] = ionization mode: ESI-, ion species: [M-H]-
SMILES,"reversed-phase LC retention time [1, 3] [min]","collision cross section [2, 3] [Å²]","reversed-phase LC retention time [1, 4] [min]","collision cross section [2, 4] [Å²]"
COP(=O)(OC)C(O)C(Cl)(Cl)Cl (stereo not drawn) [Trichlorfon],9.07,138.18,,
Oc1cc(Cl)ccc1Oc1ccc(Cl)cc1Cl [Triclosan],,,16.8,158.5
Cc1ccc(OP(=O)(Oc2ccc(C)cc2)Oc2ccc(C)cc2)cc1 [Tricresylphosphate],17.2,190.01,,
CCOP(=O)(OCC)OCC [Triethylphosphate],10.7,131.26,,
CO/N=C(/C(=O)OC)c1ccccc1CO/N=C(\C)c1cccc(C(F)(F)F)c1 [Trifloxystrobin],16.3,188.81,,
O=S(=O)(O)C(F)(F)F [Trifluoromethanesulfonic acid],,,1.37,108.15
COP(=O)(OC)OC [Trimethylphosphate],6.15,116.51,,
O=P(Oc1ccccc1)(Oc1ccccc1)Oc1ccccc1 [Triphenylphosphate],15.7,172.48,,
CCCOP(=O)(OCCC)OCCC [Tripropyl phosphate],14.2,149,,
CC(CCl)OP(=O)(OC(C)CCl)OC(C)CCl (stereo not drawn) [Tris(1-chloro-2-propyl)phosphate],14.3,162.58,,
"O=P(OCC(Br)CBr)(OCC(Br)CBr)OCC(Br)CBr (stereo not drawn) [Tris(2,3-dibromopropyl)phosphate]",16,195.61,,
O=P(OCCCl)(OCCCl)OCCCl [Tris(2-chloroethyl)phosphate],11.7,150.93,,
CCCCC(CC)COC(=O)c1ccc(C(=O)OCC(CC)CCCC)c(C(=O)OCC(CC)CCCC)c1 (stereo not drawn) [Tris(2-ethylhexyl)trimellitate],20.9,258.93,,
CC(C)(c1ccccc1)c1cc(-n2nc3ccccc3n2)c(O)c(C(C)(C)c2ccccc2)c1 [UV-234],19.7,219.51,,
CC(C)(C)c1cc(-n2nc3ccccc3n2)c(O)c(C(C)(C)C)c1 [UV-320],19.7,188.24,20.9,193.86
CC(C)(C)c1cc(-n2nc3ccc(Cl)cc3n2)c(O)c(C(C)(C)C)c1 [UV-327],,,22,199.94
CCC(C)(C)c1cc(-n2nc3ccccc3n2)c(O)c(C(C)(C)CC)c1 [UV-328],20.1,196.56,,
CC(C)(C)CC(C)(C)c1cc(-n2nc3ccccc3n2)c(O)c(C(C)(C)c2ccccc2)c1 [UV-928],20.4,220.23,,
C[C@H]1CCCC(=O)CCC/C=C/c2cc(O)cc(O)c2C(=O)O1 [Zearalenone],,,14.4,178.16
Cc1cc(-c2ccc(N)c(C)c2)ccc1N [o-Tolidine],7.76,165.69,,
Cc1cc(O)ccc1Cl [p-Chlorocresol],,,11.6,122.21

# Other lines, results leading:
"reversed-phase LC retention time [1, 3] [min]","collision cross section [2, 3] [Å²]","reversed-phase LC retention time [1, 4] [min]","collision cross section [2, 4] [Å²]",SMILES
10.1,148.84,,,CCCCN(CCCC)CCCC [Tributylamine]
16.2,173.98,16.6,167.79,O=C(Nc1ccc(Cl)cc1)Nc1ccc(Cl)c(Cl)c1 [Triclocarban]
11.8,159.4,,,CCOC(=O)CC(O)(CC(=O)OCC)C(=O)OCC [Triethylcitrate]
11.2,143.71,,,CCCCOCCOCCOCCO [Triethylene Glycol Monobutyl Ether]
7.8,173.75,,,COc1cc(Cc2cnc(N)nc2N)cc(OC)c1OC [Trimethoprim]
13.9,163,,,O=P(c1ccccc1)(c1ccccc1)c1ccccc1 [Triphenylphosphine oxide]
6.72,131.65,,,CCCN(CCC)CCC [Tripropylamine]
19.8,221.12,,,CCCCC(CC)COP(=O)(OCC(CC)CCCC)OCC(CC)CCCC (stereo not drawn) [Tris(2-ethylhexl)phosphate]
13.7,186.88,11.8,184.96,COc1nc(NC(=O)NS(=O)(=O)c2ccccc2C(F)(F)F)nc(C(F)(F)F)n1 [Tritosulfuron]
13,282.55,15.6,293.81,CC[C@H]1OC(=O)C[C@@H](O)[C@H](C)[C@@H](O[C@@H]2O[C@H](C)[C@@H](O[C@H]3C[C@@](C)(O)[C@@H](O)[C@H](C)O3)[C@H](N(C)C)[C@H]2O)[C@@H](CC=O)C[C@@H](C)C(=O)/C=C/C(C)=C/[C@@H]1CO[C@@H]1O[C@H](C)[C@@H](O)[C@@H](OC)[C@H]1OC [Tylosin]
7.4,226.35,,,CC1(C)CC(N(C=O)CCCCCCN(C=O)C2CC(C)(C)NC(C)(C)C2)CC(C)(C)N1 [Univul-4050H]
18.4,208.26,17.6,219.38,C[C@H]1[C@H](C)CC[C@]2(C(=O)O)CC[C@]3(C)C(=CC[C@@H]4[C@@]5(C)CC[C@H](O)C(C)(C)[C@@H]5CC[C@]43C)[C@H]12 [Ursolic acid]
17.4,209.29,,,CCCCCCOC(=O)c1ccccc1C(=O)c1ccc(N(CC)CC)cc1O [Uvinul A Plus]
11.2,161.62,6.27,162.3,O=C(O)c1ccc(-c2ccccc2-c2nnn[nH]2)cc1 [Valsartan acid]
14.4,204.42,11.8,203.89,CCCCC(=O)N(Cc1ccc(-c2ccccc2-c2nn[nH]n2)cc1)C(C(=O)O)C(C)C (stereo not drawn) [Valsartan]
12,227.75,14.9,219.66,CCCc1nc(C)c2c(=O)nc(-c3cc(S(=O)(=O)N4CCN(CC)CC4)ccc3OCC)[nH]n12 [Vardenafil]
8.96,166.78,11.3,172.85,CN(C)CC(c1ccc(O)cc1)C1(O)CCCCC1 (stereo not drawn) [Venlafaxine-O-desmethyl]
12.2,208.22,,,COc1ccc(CCN(C)CCCC(C#N)(c2ccc(OC)c(OC)c2)C(C)C)cc1OC (stereo not drawn) [Verapamil]
14.1,168.14,10.1,171.91,CC(=O)CC(c1ccccc1)c1c(O)c2ccccc2oc1=O (stereo not drawn) [Warfarin]
11.2,192.95,,,O=C1Cc2cc(CCN3CCN(c4nsc5ccccc45)CC3)c(Cl)cc2N1 [Ziprasidone]
,,7.68,136.84,Cc1ccc(S(=O)(=O)O)c(C)c1 [m-Xylene-4-sulfonic acid]
,,8.4,134.47,Cc1ccc(S(N)(=O)=O)cc1 [p-Toluenesulfonamide]
,,7.34,135.45,Cc1ccc(OS(=O)(=O)[O-])cc1 [p-Tolyl Sulfate]
